Reference: patent US9289425B2, “Intranasal naloxone compositions and methods of making and using same” (priority 2013, dated 2016)
Structures can show the parent of a compound that is named as a salt. Where two headings read alike, the source gives them in different places.

How the values were obtained:
[1] = Physicochemical properties of naloxone stated in the description; details: pH of about 5.5 to 6.5
Excerpt: Specifically, naloxone is known to have a pKa of about 8. For nasal formulations, wherein transmucosal delivery is desired, it is generally considered advantageous, if not necessary, to ensure that an active agent is primarily in an un-ionized state, as unionized species pass through membranes more easily than ionized species. […] The nasal mucosal is at a pH of about 5.5 to 6.5, a pH at which Applicant has found naloxone is unstable.
Naloxone prevents or reverses the effects of opioids including respiratory depression, sedation and hypotension. Also, it can reverse the psychotomimetic and dysphoric effects of agonist-antagonists such as pentazocine. […] In the presence of physical dependence on opioids, naloxone will produce withdrawal symptoms. However, in the presence of opioid dependence, withdrawal symptoms will appear within minutes of naloxone administration and will subside in about 2 hours. The severity and duration of the withdrawal syndrome are related to the dose and route of administration of naloxone and to the degree and type of dependence.

[2] = cited from earlier work

Question: Which “stability versus pH” value [1] does the source give for `C=CCN1CC[C@]23c4c5ccc(O)c4O[C@H]2C(=O)CC[C@@]3(O)[C@H]1C5` [naloxone, 17-allyl-4,5α-epoxy, 3-14-dihydroxymorphinan-6-one hydrochloride] here?
Answer: Its value is “unstable”.

Question: And the pKa [2]?
Answer: The pKa was “about 8”.

Question: And the solubility ([2]; in alcohol)?
Answer: Its solubility is “slightly soluble”.

Question: What about the solubility ([2]; in ether and in chloroform) of the same molecule?
Answer: Its solubility is “practically insoluble”.

Question: What about the solubility ([2]; in water, in dilute acids, and in strong alkali) of the same molecule?
Answer: Its solubility is “soluble”.
